Assay [1] concerns Bmal1-dLuc U2OS cells. Briefly: Cell-based circadian assay. Conditions: for fold more potent than longdaysin (period lengthening): relative to longdaysin.
A further assay has as its system 374 kinases. Briefly: Profiling toward 374 kinases. It is filed as biochemical. Conditions: 5 μM compound.
Assay [2] concerns mouse behavioral rhythms. Conditions: cited from earlier work.
The subject of assay [3] is Bmal1-dLuc U2OS cells. Conditions: cited from earlier work.
The subject of assay [4] is mouse behavioral rhythms. Briefly: Circadian behavior measurement, infusion into the lateral ventricle. It counts as in vivo, mice. Conditions: 1 mM infusion, constant darkness.

The values that follow come from publication PMC8901179 (Journal of medicinal chemistry, 2019).

Take `CC(C)n1cnc2c(NCc3cccc(C(F)(F)F)c3)nc(NCCN(C)C)nc21` [6a, N2-(2-(Dimethylamino)ethyl)-9-isopropyl-N6-(3-(trifluoromethyl)benzyl)-9H-purine-2,6-diamine]: in the assay on Bmal1-dLuc U2OS cells [1], the “fold more potent than longdaysin (period lengthening)” value (“fold more potent than longdaysin” for short) is recorded as ~ 3 fold.
Take `CC(C)n1cnc2c(NCc3cccc(C(F)(F)F)c3)nc(N3CCC(O)CC3)nc21` [6d, 1-(9-Isopropyl-6-((3-(trifluoromethyl)benzyl)amino)-9H-purin-2-yl)piperidin-4-ol]: the “period lengthening activity (in words)” value in the assay on Bmal1-dLuc U2OS cells [1] was “decreased activity”.
`CC(C)n1cnc2c(NCc3cccc(C(F)(F)F)c3)nc(NCCN3CCOCC3)nc21` [6f, 9-Isopropyl-N2-(2-morpholinoethyl)-N6-(3-(trifluoromethyl)-benzyl)-9H-purine-2,6-diamine]: the “period lengthening activity (in words)” value in the assay on Bmal1-dLuc U2OS cells [1] is recorded as “decreased activity”.
As for `CC(C)n1cnc2c(NCc3cccc(C(F)(F)F)c3)nc(NCCN)nc21` [6k, N2-(2-Aminoethyl)-9-isopropyl-N6-(3-(trifluoromethyl)benzyl)-9H-purine-2,6-diamine], in the assay with Bmal1-dLuc U2OS cells [1], the “period lengthening activity (in words)” value is “much less activity compared to 6a”.
Consider `CC(C1CC1)n1cnc2c(NCc3cccc(C(F)(F)F)c3)ncnc21` (stereo not shown) [7a], for which the “fold more potent than longdaysin” value with Bmal1-dLuc U2OS cells [1] is ~ 3 fold.
For the compound `CC(C1CC1)n1cnc2c(NCc3cccc(C(F)(F)F)c3)nc(NCCN(C)C)nc21` (stereo not shown) [7b, 9-(1-Cyclopropylethyl)-N2-(2-(dimethylamino)ethyl)-N6-(3-(trifluoromethyl)benzyl)-9H-purine-2,6-diamine], the “number of kinases among 374 kinases inhibited by more than 50%” value in the assay on 374 kinases is listed as 9. Moreover, in the assay with Bmal1-dLuc U2OS cells [1], the “fold more potent than longdaysin” value was ~ 10 fold.
For the compound `CC(C1CC1)n1cnc2c(N(C)Cc3cccc(C(F)(F)F)c3)nc(NCCN(C)C)nc21` (stereo not shown) [7c, 9-(1-Cyclopropylethyl)-N2-(2-(dimethylamino)ethyl)-N6-methyl-N6-(3-(trifluoromethyl)benzyl)-9H-purine-2,6-diamine], in the assay on Bmal1-dLuc U2OS cells [1], the “period lengthening activity (in words)” value was “dramatic decrease in the period lengthening activity”.
Take `CC(C1CC1)n1cnc2c(OCc3cccc(C(F)(F)F)c3)nc(NCCN(C)C)nc21` (stereo not shown) [7d, N1-(9-(1-Cyclopropylethyl)-6-((3-(trifluoromethyl)benzyl)oxy)-9H-purin-2-yl)-N2,N2-dimethylethane-1,2-diamine]: the “period lengthening activity (in words)” value with Bmal1-dLuc U2OS cells [1] is “dramatic decrease in the period lengthening activity”.
As for `Nc1nccc(-c2c(-c3ccc(F)cc3)ncn2C2CCCCC2)n1` [PF-670462], the “period change in vivo (in words)” value with mouse behavioral rhythms [2] is “only small period change in vivo”.
Regarding `CC(C)n1cnc2c(NCc3cccc(C(F)(F)F)c3)ncnc21` [longdaysin], in the assay with Bmal1-dLuc U2OS cells [3], the “compound concentration for 1 h period lengthening” value was 0.3 µM. Further, the “period lengthening of circadian behavior” value in the assay with mouse behavioral rhythms [4] was “about 0.05 h”. For the same compound, in the assay with Bmal1-dLuc U2OS cells [1] (relative to benipurine), the “fold more potent than benipurine (1 h period lengthening)” value worked out at 3 fold.
